Paper PMC9318275, “A Novel ALDH1A1 Inhibitor Blocks Platinum-Induced Senescence and Stemness in Ovarian Cancer” (Cancers, 2022)

Tests used:
[1] = biological target: T1, ALDH1A1 (Homo sapiens, UniProt P00352); assay: X-ray crystal structure at […] Å (complex with NAD and CM38); type: binding
T1 sequence (P00352 2-501): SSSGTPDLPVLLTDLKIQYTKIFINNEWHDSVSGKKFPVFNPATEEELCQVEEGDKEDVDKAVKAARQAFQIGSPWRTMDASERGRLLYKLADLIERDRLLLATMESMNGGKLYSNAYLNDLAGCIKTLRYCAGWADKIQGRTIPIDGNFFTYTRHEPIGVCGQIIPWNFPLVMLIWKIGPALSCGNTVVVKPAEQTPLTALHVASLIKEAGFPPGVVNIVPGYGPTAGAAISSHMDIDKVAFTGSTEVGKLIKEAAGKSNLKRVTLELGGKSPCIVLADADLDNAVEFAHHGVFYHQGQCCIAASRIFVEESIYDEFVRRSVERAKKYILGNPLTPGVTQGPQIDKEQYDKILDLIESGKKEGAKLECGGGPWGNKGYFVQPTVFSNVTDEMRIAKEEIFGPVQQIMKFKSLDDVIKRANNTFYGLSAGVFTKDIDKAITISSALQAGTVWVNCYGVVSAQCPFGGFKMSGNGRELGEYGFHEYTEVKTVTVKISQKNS

[2] = biological target: T2, ALDH1A3 (Homo sapiens, UniProt P47895); assay: biochemical; set-up: NAD(P)H formation at 340 nm, purified recombinant ALDH1A enzyme, propionaldehyde and NAD+; settings: read-out: ALDH1A3 % activity versus control at 20 uM
T2 sequence (P47895 1-512): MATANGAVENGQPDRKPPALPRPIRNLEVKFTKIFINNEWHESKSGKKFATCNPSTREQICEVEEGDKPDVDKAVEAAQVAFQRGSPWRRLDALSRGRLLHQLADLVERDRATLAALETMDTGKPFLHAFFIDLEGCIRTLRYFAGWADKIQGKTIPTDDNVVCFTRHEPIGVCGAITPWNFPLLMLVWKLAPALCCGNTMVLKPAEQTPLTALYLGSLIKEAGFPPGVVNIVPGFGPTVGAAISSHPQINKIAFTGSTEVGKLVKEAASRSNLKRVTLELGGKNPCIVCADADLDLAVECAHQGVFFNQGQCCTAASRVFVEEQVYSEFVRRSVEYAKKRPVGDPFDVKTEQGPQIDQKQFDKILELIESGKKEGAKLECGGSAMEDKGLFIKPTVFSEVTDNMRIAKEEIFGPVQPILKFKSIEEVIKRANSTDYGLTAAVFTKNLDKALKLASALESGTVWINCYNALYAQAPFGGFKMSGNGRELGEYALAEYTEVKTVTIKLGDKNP
Protocol: (§1) Human ALDH1A1, ALDH1A2, and ALDH1A3 were prepared and purified as previously described. The inhibition of ALDH activity by compounds and the IC50 curves were determined by measuring the formation of NAD(P)H spectrophotometrically at 340 nm (molar extinction coefficient of 6200 M^−1 cm^−1) on a Beckman DU-640 as well as a Spectramax 340 PC spectrophotometer (GMI, Ramsey, NJ, USA) using a purified recombinant enzyme. The reaction components for assays with ALDH1A enzymes consisted of 100–200 nM enzyme, 200 µM NAD+, 100 µM propionaldehyde, and 1% DMSO in 25 mM BES buffer at pH 7.5. All assays were performed at 25 °C and were initiated by the addition of substrate after a 2 min incubation period. The purification of and the reaction conditions for the other ALDH isoenzymes were as described in [27]. […] The data were fit to the four-parameter EC50 equation using SigmaPlot (v14), and the values represent the means/SEM of three independent experiments (n = 3). Figure S1. X-Ray Crystallography of CM38 with ALDH1A1 and characterization of inhibitor activ-ity (A). Structure of Human ALDH1A1 with bound compound CM38. […] (B). Inhibition of ALDH activity by compounds and IC50 curves were determined by measuring the formation of NAD(P)H spectro-photometrically at 340 nm using purified recombinant enzymes. (C). […]

[3] = biological target: T3, ALDH1A2 (Homo sapiens, UniProt O94788); assay: biochemical; set-up: NAD(P)H formation at 340 nm, purified recombinant ALDH1A enzyme, propionaldehyde and NAD+; settings: read-out: ALDH1A2 % activity versus control at 20 uM
T3 sequence (O94788 1-518): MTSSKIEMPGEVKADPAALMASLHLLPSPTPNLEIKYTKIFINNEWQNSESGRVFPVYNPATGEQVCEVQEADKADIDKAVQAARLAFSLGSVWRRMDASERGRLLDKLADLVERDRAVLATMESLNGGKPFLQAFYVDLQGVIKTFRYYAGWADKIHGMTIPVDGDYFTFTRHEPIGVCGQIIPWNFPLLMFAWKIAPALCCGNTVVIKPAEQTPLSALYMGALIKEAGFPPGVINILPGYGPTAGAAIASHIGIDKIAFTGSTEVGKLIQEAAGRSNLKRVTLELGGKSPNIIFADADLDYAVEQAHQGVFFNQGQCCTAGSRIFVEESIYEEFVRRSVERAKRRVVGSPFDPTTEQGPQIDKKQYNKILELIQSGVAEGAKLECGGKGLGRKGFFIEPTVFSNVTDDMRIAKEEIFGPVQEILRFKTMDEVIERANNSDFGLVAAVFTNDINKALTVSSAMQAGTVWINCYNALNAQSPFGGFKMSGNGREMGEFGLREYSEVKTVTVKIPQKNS
Protocol: as §1

[4] = biological target: T4, ALDH2 (Homo sapiens, UniProt P05091); assay: biochemical; set-up: NAD(P)H formation at 340 nm, purified recombinant ALDH isoenzymes; settings: read-out: ALDH2 % activity versus control at 20 uM
T4 sequence (P05091 1-517): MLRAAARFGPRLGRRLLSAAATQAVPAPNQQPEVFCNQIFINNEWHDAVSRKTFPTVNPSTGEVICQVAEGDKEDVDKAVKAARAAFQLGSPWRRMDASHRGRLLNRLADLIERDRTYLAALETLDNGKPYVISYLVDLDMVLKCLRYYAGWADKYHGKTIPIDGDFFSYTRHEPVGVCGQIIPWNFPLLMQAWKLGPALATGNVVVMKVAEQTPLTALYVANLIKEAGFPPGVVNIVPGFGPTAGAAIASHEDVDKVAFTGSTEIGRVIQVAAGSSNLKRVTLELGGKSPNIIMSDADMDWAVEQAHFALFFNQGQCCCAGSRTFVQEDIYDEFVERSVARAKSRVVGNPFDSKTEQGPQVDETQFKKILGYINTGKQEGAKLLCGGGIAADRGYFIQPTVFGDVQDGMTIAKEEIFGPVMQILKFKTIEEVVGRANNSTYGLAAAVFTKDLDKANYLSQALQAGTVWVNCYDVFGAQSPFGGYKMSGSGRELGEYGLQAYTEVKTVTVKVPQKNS
Protocol: as §1

[5] = biological target: T5, ALDH1B1 (Homo sapiens, UniProt P30837); assay: biochemical; set-up: NAD(P)H formation at 340 nm, purified recombinant ALDH isoenzymes; settings: read-out: ALDH1B1 % activity versus control at 20 uM
T5 sequence (P30837 1-517): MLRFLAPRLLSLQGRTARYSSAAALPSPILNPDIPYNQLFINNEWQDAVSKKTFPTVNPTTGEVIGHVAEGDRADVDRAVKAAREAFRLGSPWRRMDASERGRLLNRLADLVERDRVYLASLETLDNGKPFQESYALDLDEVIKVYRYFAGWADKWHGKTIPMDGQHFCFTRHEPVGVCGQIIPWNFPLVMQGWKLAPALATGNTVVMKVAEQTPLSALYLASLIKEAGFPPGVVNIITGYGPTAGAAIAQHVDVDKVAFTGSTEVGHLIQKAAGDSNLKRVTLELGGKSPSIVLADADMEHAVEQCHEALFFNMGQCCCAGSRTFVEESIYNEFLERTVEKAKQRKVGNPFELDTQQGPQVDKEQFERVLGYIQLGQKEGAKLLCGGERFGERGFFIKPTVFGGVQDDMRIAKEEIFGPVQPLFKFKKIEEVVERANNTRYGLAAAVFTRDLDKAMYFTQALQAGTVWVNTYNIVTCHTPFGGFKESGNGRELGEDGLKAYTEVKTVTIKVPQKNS
Protocol: as §1

[6] = biological target: T1, ALDH1A1; assay: purified recombinant enzyme, NAD(P)H formation at […] nm with propionaldehyde as substrate; type: biochemical

remaining activity at 20 µM [2] [%] | remaining activity at 20 µM [3] [%] | remaining activity at 20 µM [4] [%] | remaining activity at 20 µM [5] [%] | IC50 [6] [nM] | SMILES | X-ray crystal structure at 1.8 Å (complex with NAD and CM38) [1]
 |  |  |  |  | NC(=O)c1ccc[n+]([C@@H]2O[C@H](COP(=O)([O-])OP(=O)(O)OC[C@H]3O[C@@H](n4cnc5c(N)ncnc54)[C@H](O)[C@@H]3O)[C@@H](O)[C@H]2O)c1 [NAD] | we determined the structure of ALDH1A1 in a complex with both NAD and CM38 by X-ray crystallography
85 ± 4 | 63 ± 4.2 | 76 ± 20 | 67 ± 3.9 | 470 | Cc1c(C(=O)N2CCCCC2)oc2ccc3c(c12)C(=O)CC1(CCCCCC1)O3 [compound 974] | 
